Test system: 699152-130-R-J1-PDC complex spheroid viability
Assay: Anticancer human tumor 699152-130-R-J1-PDC patient-derived pancreatic carcinoma cell line growth inhibition [POLQ]
Settings: for IC50: curve of first compound; for viability, T/C: stronger effect = lower value
Experimental: Multicellular complex tumor spheroid response to Polymerase (POL) inhibitors (novobiocin, ART-558, RP6685) in combination with a variety of drugs and investigational agents in selected tumor cell lines
The POL inhibitors (novobiocin, ART-558, and RP6685) were evaluated both individually and in combination with standard of care and investigational anticancer small molecules within a complex spheroid model of solid tumors. . Complex spheroids include a stromal component modeled by human endothelial cells (HUVEC) and fibroblasts modeled by human mesenchymal stem cells (MSCs). The concentration ranges selected for each drug and investigational agent were based upon clinically achievable concentrations if the clinical Cmax of the agent was known.
Compounds. The drugs and investigational agents: novobiocin (NSC847541), ART-558 (NSC835418), RP-6685 (NSC848927), peposertib (NSC802822), ceralasertib (NSC780249), elimusertib (NSC800525), camonsertib (NSC841442), AZD-1390 (NSC803789), olaparib (NSC753686), talazoparib (NSC767125), rucaparib (NSC756644), sotorasib (NSC818433), MRTX-1133 (NSC836407), SN-38 (NSC673596), topotecan (NSC609699), epotoside (NSC141540), doxorubicin (NSC123127), gemcitabine (NSC613327), 5-fluorouracil (NSC19893), paclitaxel (NSC125973), vemurafenib (NSC761431), MSA-2 (NSC828583), SN-011 (NSC837082), adavosertib (NSC754352), prexasertib (NSC758257), carboplatin (NSC241240) and oxaliplatin (NSC266046), were obtained from the National Cancer Institute (NCI) Developmental Therapeutics Program Chemical Repository (21). The FDA-approved anticancer drug set is available from the Developmental Therapeutics Program at https://dtp.cancer.gov/organization/dscb/obtaining/. […] The stock solutions were prepared in dimethyl sulfoxide (DMSO, Sigma-Aldrich, St. Louis, MO, cat. D2650), except for the platinum compounds which were prepared in saline (Quality Biological, Gaithersburg, MD, cat. 114-055-101), at 800-fold the tested concentration and stored at -70 degrees C prior to their use. All drugs and investigational agents were tested over a range starting from a high concentration at or near the clinical Cmax and decreasing in half-log increments. If the clinical Cmax for an agent had not been determined, the highest concentration tested was 10 microM, except for SN-38, which was tested at a high concentration of 1 microM.
Cell Culture. All cells were maintained in an incubator at 37 degrees C and 5% CO2 with 95% humidity. The PDC lines were cultured according to standard operating procedures established by the NCI PDMR (https://pdmr.cancer.gov). Table 3 of the manuscript, lists the cell lines along with the number of the three cell types plated to form the mct-spheroids and media for tumor cell growth. After thawing, all PDC lines, except 997537-175-T-J1-PDC and 415267-285-R-J2-PDC, were cultured in Matrigel-coated flasks prepared with a working solution of 1X Ham's F-12 nutrient mix, without supplementation (Thermo Fisher Scientific, cat. 11765054), 100 U/mL penicillin-streptomycin (Thermo Fisher Scientific, cat. 15140122), and 2.5% Matrigel (Corning Inc., Corning, NY, cat. 354248) for the first three passages. The two PDC lines 997537-175-T-J1-PDC and 415267-285-R-J2-PDC were cultured on uncoated flasks. The 857933-349-R-J2-PDC line was cultured in 6C/Colon 1B media containing advanced DMEM/F-12 (Thermo Fisher Scientific, cat. 12634028), 10 mM HEPES (Thermo Fisher Scientific, cat. 15630080), 1X GlutaMAX supplement (Thermo Fisher Scientific, cat. 35050061), 0.1 mg/mL primocin (InvivoGen, San Diego, CA, cat. ant-pm-2), 10% defined fetal bovine serum, heat inactivated (HyClone Laboratories Inc., Logan, UT, cat. SH30070.03HI), 50% L-WRN conditioned media (ATCC, cat. CRL-3276), 1.25 mM N-Acetyl-L-cysteine (Sigma-Aldrich, cat. A9165), 10 mM nicotinamide (Sigma-Aldrich, cat. N0636), 1X B-27 supplement (Thermo Fisher Scientific, cat. 17504044), 1X N-2 supplement (Thermo Fisher Scientific, cat. […]
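Also: spheroids exposed to agents for 7 days before viability reading.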
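For viability, T/C in this document: percent of DMSO vehicle control viability so 100% = vehicle and 0% = no viable signal.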

With `C=CCn1c(=O)c2cnc(Nc3ccc(N4CCN(C)CC4)cc3)nc2n1-c1cccc(C(C)(C)O)n1` + COC1C(OC(N)=O)C(O)C(Oc2ccc3c(O)c(NC(=O)c4ccc(O)c(CC=C(C)C)c4)c(=O)oc3c2C)OC1(C)C the IC50 (second compound 0.0316 µM) was > 1000 nM, the IC50 (second compound 0.1 µM) was > 1000 nM and the IC50 (second compound 0.316 µM) was > 1000 nM. The IC50 (second compound 1 µM) was > 1000 nM, the IC50 (second compound 3.16 µM) was > 1000 nM and the IC50 (second compound 10 µM) was > 1000 nM. It also gave a viability, T/C (second compound 0.0316 µM, first compound 0.00316 µM) of 90.2%, a viability, T/C (second compound 0.0316 µM, first compound 0.01 µM) of 98.2% and a viability, T/C (second compound 0.0316 µM, first compound 0.0316 µM) of 99.4%. For the same molecule, the viability, T/C (second compound 0.0316 µM, first compound 0.1 µM) was 90.2%, the viability, T/C (second compound 0.0316 µM, first compound 0.316 µM) was 94.6% and the viability, T/C (second compound 0.0316 µM, first compound 1 µM) was 77.4%. The viability, T/C (second compound 0.1 µM, first compound 0.00316 µM) was 102%, the viability, T/C (second compound 0.1 µM, first compound 0.01 µM) was 102% and the viability, T/C (second compound 0.1 µM, first compound 0.0316 µM) was 109%. It also gave a viability, T/C (second compound 0.1 µM, first compound 0.1 µM) of 95%, a viability, T/C (second compound 0.1 µM, first compound 0.316 µM) of 98.7% and a viability, T/C (second compound 0.1 µM, first compound 1 µM) of 75%. For the same molecule, the viability, T/C (second compound 0.316 µM, first compound 0.00316 µM) was 97.7%, the viability, T/C (second compound 0.316 µM, first compound 0.01 µM) was 95.1% and the viability, T/C (second compound 0.316 µM, first compound 0.0316 µM) was 94.8%. It also gave a viability, T/C (second compound 0.316 µM, first compound 0.1 µM) of 104%, a viability, T/C (second compound 0.316 µM, first compound 0.316 µM) of 104% and a viability, T/C (second compound 0.316 µM, first compound 1 µM) of 70.7%. For the same molecule, the viability, T/C (second compound 1 µM, first compound 0.00316 µM) was 108%, the viability, T/C (second compound 1 µM, first compound 0.01 µM) was 93.9% and the viability, T/C (second compound 1 µM, first compound 0.0316 µM) was 92.1%. For the same molecule, the viability, T/C (second compound 1 µM, first compound 0.1 µM) was 99.5%, the viability, T/C (second compound 1 µM, first compound 0.316 µM) was 90% and the viability, T/C (second compound 1 µM, first compound 1 µM) was 74%. For the same molecule, the viability, T/C (second compound 3.16 µM, first compound 0.00316 µM) was 107%, the viability, T/C (second compound 3.16 µM, first compound 0.01 µM) was 92.9% and the viability, T/C (second compound 3.16 µM, first compound 0.0316 µM) was 105%. It also gave a viability, T/C (second compound 3.16 µM, first compound 0.1 µM) of 96.6%, a viability, T/C (second compound 3.16 µM, first compound 0.316 µM) of 96.4% and a viability, T/C (second compound 3.16 µM, first compound 1 µM) of 76.5%. It also gave a viability, T/C (second compound 10 µM, first compound 0.00316 µM) of 99.1%, a viability, T/C (second compound 10 µM, first compound 0.01 µM) of 101% and a viability, T/C (second compound 10 µM, first compound 0.0316 µM) of 96.3%. For the same molecule, the viability, T/C (second compound 10 µM, first compound 0.1 µM) was 98.7%, the viability, T/C (second compound 10 µM, first compound 0.316 µM) was 95% and the viability, T/C (second compound 10 µM, first compound 1 µM) was 68%.

From PubChem BioAssay AID1963835 (Molecular Pharmacology Branch, DTP, NCI, 2024)
